Experimental data taken from patent US4621145A, “Process for preparing 5-vinyl-2-pyrrolidinone and intermediates therefor” (Merrell Dow Pharmaceuticals Inc., priority 1982, dated 1986).

What was measured:
[1] = system: convulsions and death, induced by mercaptopropionic acid; test: Protection of mice against effects induced by mercaptopropionic acid; format: in vivo; details: mercaptopropionic acid 53 mg/kg i.p. 6 hours after
GABA-T [2] = test: Chronic oral experiment in rats: GABA-T activity in homogenates of brain minus the cortex; format: in vivo; details: oral daily 100 mg/kg, 24 hours after last dose
Procedure: (§1) In a chronic experiment, a group of five rats was given oral daily doses of 100 mg/kg of (R)-4-aminohex-5-ynoic acid. A separate group of animals was used as control. Twenty-four hours after the last dose, the animals were sacrificed and the cortex was dissected from the rest of the brain.

[3] = system: GABA concentrations in mice brain; test: GABA concentrations in mice brain, test method of Jung et al., J. Neurochemistry; format: in vivo; details: 4 hours after injection
Source text: (§2) The biochemical and pharmacological effects of 4-aminohex-5-ynoic acid are described in Jung et al., Biochem. and Biophys. Res. Comm., 67, 301 (1975); Jung et al., J. Neurochemistry, 28, 717 (1977); Jung et al., Biochemistry, 17, 2628 (1978); Bouclier et al., Eur. J. Biochem., 98, 363 (1979); Biochem. Pharmacology, 28, 1705 (1979); and Lippert et al., Brain Research Bull., 5, 375 (1980). […] For example, (R)-4-aminohex-5-ynoic acid gave the follow effects on GABA-T activity and GABA concentrations in mice brain using the test method of Jung et al., J. Neurochemistry, supra:
(§3) ^(a) 4 hours after injection of the test compound, i.p.

GABA-T [4] = test: Irreversible inhibition of GABA-T in vivo
[5] = design: species or system mice; details: mouse, in vivo, ip, 400 mg/kg
GABA-T [6] = test: GABA-T activity in mice brain, test method of Jung et al., J. Neurochemistry; format: in vivo; details: 4 hours after injection
Source text: as §2, §3

[7] = system: GABA concentration in homogenates of the cortex; test: Chronic oral experiment in rats: GABA concentration in homogenates of the cortex; format: in vivo; details: oral daily 100 mg/kg, 24 hours after last dose, vs controls
Procedure: as §1

GABA-T [8] = test: Irreversible inhibition of GABA-T in vitro; format: biochemical
[9] = design: species or system rats; details: rat, in vivo, po, 100 mg/kg
GABA-T [10] = details: reported by Lippert et al. and Bouclier et al.; cited from earlier work
[11] = system: level of γ-aminobutyric acid (GABA) in the CNS; details: background; cited from earlier work
[12] = system: γ-aminobutyric acid transaminase (GABA-T); details: background, U.S. Pat. No. 3,960,927 and literature; cited from earlier work
GABA-T enzyme = test: Biological activity of 4-amino-5-hexenoic acid enantiomers; details: GABA-T inhibition

Structure (SMILES): C#C[C@H](N)CCC(=O)O [(R)-4-aminohex-5-ynoic acid, (R)-4-Aminohex-5-ynoic acid]
- protection against convulsions and death induced by mercaptopropionic acid ([1]; 100 mg/kg i.p.): protect mice against convulsions and death
- protection against running fits ([1]; 100 mg/kg i.p.): no protection against running fits
- protection against convulsions and death induced by mercaptopropionic acid ([1]; 200 mg/kg i.p.): protect mice against convulsions and death
- protection against running fits ([1]; 200 mg/kg i.p.): no protection against running fits
- GABA-T activity decrease as compared to controls (GABA-T [2]): 81%
- GABA Concentration % Control ([3]; 25 mg/kg i.p.): 103 % Control
- GABA Concentration % Control ([3]; 50 mg/kg i.p.): 125 % Control
- GABA Concentration % Control ([3]; 100 mg/kg i.p.): 180 % Control
- GABA Concentration % Control ([3]; 200 mg/kg i.p.): 275 % Control
- irreversible inhibition of GABA-T (GABA-T [4]): irreversible inhibitor of GABA-T
- death [5]: dead
- sedation [5]: produced sedation
- time to sedation [5]: ≤ 30 min
- % Inhibition of GABA-T (GABA-T [6]; 25 mg/kg i.p.): 31%
- % Inhibition of GABA-T (GABA-T [6]; 50 mg/kg i.p.): 50%
- % Inhibition of GABA-T (GABA-T [6]; 100 mg/kg i.p.): 66%
- % Inhibition of GABA-T (GABA-T [6]; 200 mg/kg i.p.): 81%
- GABA concentration in homogenates of the cortex [7]: approximately doubled
- irreversible inhibition of GABA-T (GABA-T [8]): irreversible inhibitor of GABA-T
- body weight effect [9]: lost body weight
- course of body weight and hair loss effects [9]: appeared to disappear during the second week
- hair loss [9]: lost hair on their backs

Structure (SMILES): C#C[C@@H](N)CCC(=O)O [(S)-4-aminohex-5-ynoic acid]
- irreversible inhibition of GABA-T (reported as only active enantiomer) (GABA-T [10]): irreversibly inhibit GABA-T

Structure (SMILES): C=CC(N)CCC(=O)O (stereo not drawn) [4-Amino-5-hexenoic acid]
- increase of GABA level in the CNS [11]: capable of increasing the level of γ-aminobutyric acid (GABA) in the CNS
- irreversible inhibition of GABA-T [12]: irreversible inhibitor

Structure (SMILES): C=C[C@H](N)CCC(=O)O [(R)-4-amino-5-hexenoic acid]
- biological activity of the enantiomer (GABA-T enzyme): biologically inactive

Structure (SMILES): C=C[C@@H](N)CCC(=O)O [(S)-4-amino-5-hexenoic acid, (S)-4-Amino-5-hexenoic acid]
- biological activity of the enantiomer (GABA-T enzyme): biologically active
